# Key:
# [1] = test system: Phospho-YAP (SER127) in HaCaT cells; test: pYAP HTRF Assay (HaCaT Cells); type: cell-based, human; settings: Homo sapiens, 2 hours
# Experimental: The pYAP HTRF assay was performed using the Phospho-YAP (SER127) 10000 test kit (CisBio, catalogue number 64YAPPEH) according to manufacturer's instructions. Briefly, HaCaT cells were suspended at 1.1×10^6 cells/mL in DMEM (no phenol red)+10% FBS with penicillin-streptomycin-glutamine. 5 μL of cells were dispensed into 1536 well white solid bottom, tissue culture treated plates (5500 cells/well), and incubated for 48 hours at 37° C. 50 nL test compound was transferred into the assay plates containing HaCaT cells using Pintool (GNF) and incubated for 2 hours. […] The plates were incubated overnight (20 hrs) at room temperature covered with metal lids. Plates were read on Pherastar (BMG Labtech) for HTRF (665 nm/620 nm).
# [2] = test system: YAP nuclear translocation in HaCaT cells; test: YAP Translocation Assay (HaCaT Cells); type: cell-based, human; settings: Homo sapiens, 24 hours
# Method in brief: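 HaCaT cells (20,000/well) in DMEM + 10% FBS were plated overnight at 37° C, then exposed to compound for 24 h at 37° C. Cells were fixed with PFA, permeabilized with 0.1% Triton/1.5% BSA and imaged by high-content imaging.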
# LATS1 = LATS1 (Homo sapiens (Human), UniProt O95835); test: LATS1 biochemical assay (Table 1A, Compound Examples 1-290; method in the earlier part)
# Chain of LATS1 (O95835 whole entry, looked up): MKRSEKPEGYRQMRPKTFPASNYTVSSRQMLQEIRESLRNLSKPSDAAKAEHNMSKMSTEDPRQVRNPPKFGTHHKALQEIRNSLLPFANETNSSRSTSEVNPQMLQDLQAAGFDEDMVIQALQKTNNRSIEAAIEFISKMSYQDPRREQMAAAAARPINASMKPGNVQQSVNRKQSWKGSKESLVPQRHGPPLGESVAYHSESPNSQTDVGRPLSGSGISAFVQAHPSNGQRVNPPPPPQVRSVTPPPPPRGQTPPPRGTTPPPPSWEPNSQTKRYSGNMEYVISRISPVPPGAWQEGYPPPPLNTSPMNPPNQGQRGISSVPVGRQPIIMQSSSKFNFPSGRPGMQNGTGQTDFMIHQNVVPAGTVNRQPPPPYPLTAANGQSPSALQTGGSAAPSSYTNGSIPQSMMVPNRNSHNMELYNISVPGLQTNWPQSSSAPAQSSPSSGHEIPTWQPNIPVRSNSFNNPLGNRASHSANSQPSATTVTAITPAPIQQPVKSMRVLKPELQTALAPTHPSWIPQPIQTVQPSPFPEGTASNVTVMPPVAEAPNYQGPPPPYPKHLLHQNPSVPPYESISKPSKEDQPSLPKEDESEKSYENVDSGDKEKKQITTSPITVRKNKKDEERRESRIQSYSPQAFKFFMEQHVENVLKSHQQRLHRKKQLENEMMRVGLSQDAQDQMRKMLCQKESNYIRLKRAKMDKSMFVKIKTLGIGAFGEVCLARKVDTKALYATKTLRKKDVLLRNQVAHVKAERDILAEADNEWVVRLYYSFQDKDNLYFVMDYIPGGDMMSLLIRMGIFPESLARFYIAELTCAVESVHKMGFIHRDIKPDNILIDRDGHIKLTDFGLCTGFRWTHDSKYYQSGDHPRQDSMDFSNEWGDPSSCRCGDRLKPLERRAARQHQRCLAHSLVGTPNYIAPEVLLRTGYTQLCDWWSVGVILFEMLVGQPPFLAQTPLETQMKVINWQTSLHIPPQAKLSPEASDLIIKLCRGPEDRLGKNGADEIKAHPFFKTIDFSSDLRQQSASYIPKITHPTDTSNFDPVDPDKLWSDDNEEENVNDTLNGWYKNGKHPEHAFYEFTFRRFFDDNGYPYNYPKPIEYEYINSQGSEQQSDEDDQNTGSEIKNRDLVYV
# Chain of LATS1 (Q7L9L4 whole entry partner, looked up): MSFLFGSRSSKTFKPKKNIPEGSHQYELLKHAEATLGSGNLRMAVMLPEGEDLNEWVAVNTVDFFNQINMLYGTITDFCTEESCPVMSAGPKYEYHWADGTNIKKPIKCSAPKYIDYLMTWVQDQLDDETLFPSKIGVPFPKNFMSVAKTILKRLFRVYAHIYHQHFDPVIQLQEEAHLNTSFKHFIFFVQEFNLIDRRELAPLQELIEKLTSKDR
Compound,IC50 [1] [µM],EC50 [2] [µM],IC50 (LATS1) [µM]
"CC(C)(Nc1nc(-c2ccncc2)nc2cnccc12)c1ccccc1 [Example 81, N-(2-phenylpropan-2-yl)-2-(pyridin-4-yl)pyrido[3,4-d]pyrimidin-4-amine]",42.8,17,0.011
"O=C(O)C1(Nc2nc(-c3ccncc3)nc3cnccc23)CCC1 [Example 56, 1-{[2-(pyridin-4-yl)pyrido[3,4-d]pyrimidin-4-yl]amino}cyclobutane-1-carboxylic acid]",> 10,> 20,1.16
"Fc1cccc(Nc2nc(-c3ccncc3)nc3cnccc23)c1 [Example 95, N-(3-fluorophenyl)-2-(pyridin-4-yl)pyrido[3,4-d]pyrimidin-4-amine]",> 10,> 20,> 1.44
"C[C@H]1CCC[C@H]1Nc1nc(-c2ccncc2)nc2cnccc12 (single isomer, unassigned) [Example 17a]",4.95,4.1,0.003
"FC(F)(F)C(Cc1ccccc1)Nc1nc(-c2ccncc2)nc2cnccc12 (stereo not drawn) [Example 38, 2-(pyridin-4-yl)-N-(1,1,1-trifluoro-3-phenylpropan-2-yl)pyrido[3,4-d]pyrimidin-4-amine]",> 10,> 20,0.24
"COCC(C)(C)Nc1nc(-c2ccncc2Cl)nc2cnccc12 [Example 124, 2-(3-chloropyridin-4-yl)-N-(1-methoxy-2-methylpropan-2-yl)pyrido[3,4-d]pyrimidin-4-amine]",8.01,12,0.022
"CCNc1nc(-c2ccncc2)nc2cnccc12 [Example 13, N-ethyl-2-(pyridin-4-yl)pyrido[3,4-d]pyrimidin-4-amine]",13.5,8.51,0.004
"FC(F)(F)C1(Nc2nc(-c3cn[nH]c3)nc3cnccc23)CC1 [Example 188, 2-(1H-pyrazol-4-yl)-N-[1-(trifluoromethyl)cyclopropyl]pyrido[3,4-d]pyrimidin-4-amine]",> 100,12,0.017
"Cc1[nH]c2ncccc2c1-c1nc(NC(C)(C)C)c2ccncc2n1 [Example 114, N-tert-butyl-2-{2-methyl-1H-pyrrolo[2,3-b]pyridin-3-yl}pyrido[3,4-d]pyrimidin-4-amine]",0.565,1.33,0.002
CC(C)(CN1CCOCC1)Nc1nc(-c2ccncc2)nc2cnccc12 [Example 74],3.4,12.7,0.006
"CC1(Nc2nc(-c3ccnnc3)nc3cnccc23)CC1 [Example 174, N-(1-methylcyclopropyl)-2-(pyridazin-4-yl)pyrido[3,4-d]pyrimidin-4-amine]",> 10,> 20,0.197
"CC(C)(CCc1ccccc1)Nc1nc(-c2ccncc2)nc2cnccc12 [Example 20, N-(2-methyl-4-phenylbutan-2-yl)-2-(pyridin-4-yl)pyrido[3,4-d]pyrimidin-4-amine]",1.77,5.18,0.006
"CC1(Nc2nc(-c3ccnc(N)c3)nc3cnccc23)CC1 [Example 138, 4-{4-[(1-methylcyclopropyl)amino]pyrido[3,4-d]pyrimidin-2-yl}pyridin-2-amine]",3.37,9.07,0.002
"Cn1nccc1-c1nc(NC2(C)CC2)c2ccncc2n1 [Example 172, 2-(1-methyl-1H-pyrazol-5-yl)-N-(1-methylcyclopropyl)pyrido[3,4-d]pyrimidin-4-amine]",> 10,> 20,0.017
"CC1(Nc2nc(-c3c(F)cncc3F)nc3cnccc23)CC1 [Example 147, 2-(3,5-difluoropyridin-4-yl)-N-(1-methylcyclopropyl)pyrido[3,4-d]pyrimidin-4-amine]",> 10,> 20,0.069
"CCCNc1nc(-n2ccc3ncccc32)nc2cnccc12 [Example 156, N-propyl-2-{1H-pyrrolo[3,2-b]pyridin-1-yl}pyrido[3,4-d]pyrimidin-4-amine]",> 100,90.1,0.006

Compound,IC50 [1] [µM],EC50 [2] [µM],IC50 (LATS1) [µM]
"CC1(Nc2nc(-c3c[nH]nn3)nc3cnccc23)CC1 [Example 180, N-(1-methylcyclopropyl)-2-(1H-1,2,3-triazol-4-yl)pyrido[3,4-d]pyrimidin-4-amine]",> 10,> 20,0.322
"Fc1ccccc1Nc1nc(-c2ccncc2)nc2cnccc12 [Example 82, N-(2-fluorophenyl)-2-(pyridin-4-yl)pyrido[3,4-d]pyrimidin-4-amine]",> 100,> 20,0.013
"C[C@@H]1CCC[C@@H]1Nc1nc(-c2ccncc2)nc2cnccc12 (single isomer, unassigned) [Example 17b]",0.765,1.22,0.0009
"CCCNc1nc(-c2c(C)[nH]c3ncccc23)nc2cnccc12 [Example 142, 2-{2-methyl-1H-pyrrolo[2,3-b]pyridin-3-yl}-N-propylpyrido[3,4-d]pyrimidin-4-amine]",> 100,> 28,0.006
"CCC(CC)Nc1nc(-c2ccncc2)nc2cnccc12 [Example 73, N-(pentan-3-yl)-2-(pyridin-4-yl)pyrido[3,4-d]pyrimidin-4-amine]",9.07,8.26,0.006
"Cc1ccccc1Nc1nc(-c2ccncc2)nc2cnccc12 [Example 89, N-(2-methylphenyl)-2-(pyridin-4-yl)pyrido[3,4-d]pyrimidin-4-amine]",> 100,> 100,0.044
"CC(C)CNc1nc(-c2ccncc2)nc2cnccc12 [Example 103, N-(2-methylpropyl)-2-(pyridin-4-yl)pyrido[3,4-d]pyrimidin-4-amine]",2.64,2.27,0.002
"CC[C@@H](C)Nc1nc(-c2ccncc2)nc2cnccc12 (single isomer, unassigned) [Example 68b]",4.27,2.92,0.002
"CC1(Nc2nc(-c3ccncc3)nc3cncc(Cl)c23)CC1 [Example 252, 5-chloro-N-(1-methylcyclopropyl)-2-(pyridin-4-yl)pyrido[3,4-d]pyrimidin-4-amine]",6.98,> 10,0.002
"CCCNc1nc(-c2c[nH]c3ncncc23)nc2cnccc12 [Example 161, 4 N-propyl-2-{7H-pyrrolo[2,3-d]pyrimidin-5-yl}pyrido[3,4-d]pyrimidin-4-amine]",> 100,> 20,0.025
"CC1(Nc2nc(-c3ccc4[nH]ncc4c3)nc3cnccc23)CC1 [Example 143, 2-(1H-indazol-5-yl)-N-(1-methylcyclopropyl)pyrido[3,4-d]pyrimidin-4-amine]",> 10,> 20,0.007
"OCC1(Nc2nc(-c3cn[nH]c3)nc3cnccc23)CC1 [Example 192, (1-{[2-(1H-pyrazol-4-yl)pyrido[3,4-d]pyrimidin-4-yl]amino}cyclopropyl)methanol]",> 10,> 20,0.201
"Cn1nccc1-c1nc(NC2(CO)CCC2)c2ccncc2n1 [Example 187, (1-{[2-(1-methyl-1H-pyrazol-5-yl)pyrido[3,4-d]pyrimidin-4-yl]amino}cyclobutyl)methanol]",> 100,> 20,0.016
"CC(C)(CN1CCOCC1)Nc1cc(-c2ccncc2F)nc2cnccc12 [Example 284, 2-(3-fluoropyridin-4-yl)-N-[2-methyl-1-(morpholin-4-yl)propan-2-yl]-1,7-naphthyridin-4-amine]",46.5,> 41.2,0.03
"CC1(Nc2nc(-c3cnco3)nc3cnccc23)CC1 [Example 175, N-(1-methylcyclopropyl)-2-(1,3-oxazol-5-yl)pyrido[3,4-d]pyrimidin-4-amine]",> 10,> 20,0.324
